# Experimental data: US20230226027A1, “THIENOPYRIDINE DERIVATIVES FOR USE IN THE TREATMENT OF CORONAVIRUS INFECTION” (INSERM (INSTITUT NATIONAL DE LA SANTÉ ET DE LA RECHERCHE …, priority 2020, published 2023)
# Like-named read-outs stand apart in the source and are kept apart here.
# Assays:
# [1] = system: Calu-3 cells; assay: Cellular viability assay (MTT) in Calu-3 cells; type: cell-based, human; conditions: 24 hours of treatment, MTT (FIG. 3)
# Description: FIG. 3. Analysis of cellular viability in human lung epithelial Calu-3 cells treated with AM-001. Calu-3 cells treated for 24 hours with the indicated concentrations of AM-001. Cellular viability was measured with the Cell Proliferation Kit I (MTT) (Roche Applied Science, Indianapolis, IN) according to the manufacturer’s protocol.
# Calu-3 cells were plated 48 hours before treatment in 96-wells plates at a density of 1.10^5 cells per well. After 24 hours of treatment with the different concentrations of AM-001, cells viability was measured using the Cell Proliferation Kit I (MTT) (Roche Applied Science, Indianapolis, IN) according to the manufacturer’s protocol.
# [2] = system: SARS-CoV-2; type: cell-based; conditions: VeroE6 cells, 1 h pretreatment, MOI 0.001, viral RNA in supernatant 24 hours post-infection (FIG. 1)
# [3] = system: SARS-CoV-2; type: cell-based; conditions: Calu-3 cells, concentration ≥ 10 µM, even when given 4 h post-infection, TCID50 24 hours post-infection (FIG. 4)
# [4] = system: SARS-CoV-2; type: cell-based; conditions: Calu-3 cells, 2 h pre-treatment, MOI 0.001, 24 hours post-infection (FIGS. 2A-2B)
smiles,measurement,setting,value
Nc1c(C(=O)Nc2ccc(F)cc2)sc2nc(-c3cccs3)cc(-c3ccccc3)c12 [AM-001],cellular toxicity,[1],no detected cellular toxicity
same,replication of SARS-CoV-2,[2],Inhibition of SARS-CoV-2 replication
same,replication of SARS-CoV-2,[2]; listed as AM001,significantly decreases the replication
same,infectious virus production,[3],totally blocks infectious virus production
same,SARS CoV-2 replication (viral RNA and infectious particles in supernatant),[4],inhibit SARS CoV-2 replication
